Test results reported in patent US10729770B2, “Bacterial influence on regulation of appetite via ClpB protein mimicry of alpha-MSH” (priority 2013, dated 2020).

Legend:
[1] = ClpB immunization in mice: body weight, food intake and feeding pattern (BioDAQ cages); assay type: in vivo
Protocol: All experimental protocols were conducted according to US National Institutes of Health guidelines and EU directives, and animal experiments were approved by the Institutional Ethical Committees. Two-month-old male C57BI6 mice (Janvier Laboratories, L'Arbresle, France) were acclimated to the animal facility for 1 week with 12 h light-dark cycle, lights on at 0700 hours and were kept in standard mouse-holding cages (n=8) each. Mice were fed ad libitum with standard pelleted rodent chow (RM1 diet, SDS, UK) with drinking water always available and were manipulated daily by gentle holding and measuring body weight. During acclimatization, mice were distributed between four cages to obtain the similar mean body weight per mouse per cage. After 1 week of acclimatization, mice from each cage were assigned to one of four study group and received following treatments: (i) Group 1, ClpB immunization (n=8): ClpB protein (Delphi Genetics, Gosselies, Belgium) 50 μg per mouse in 200 μl of 1:1 (vol:vol) of PBS with Complete Freund's Adjuvant (Sigma, St Louis, Mo., USA), intraperitoneally (i.p.); (ii) Group 2, adjuvant injection controls (n=8): 200 μl of Complete Freund's Adjuvant in PBS (1:1 (vol:vol), i.p.); (iii) Group 3, PBS injection controls (n=8): 200 μl of PBS (i.p.); and (iv) Group 4, intact controls (n=8): received no injections, and then all mice were returned to their holding cages. Fifteen days later, mice were given a boost immunization and the following treatments: (i) Group 1 (n=8), ClpB protein (Delphi Genetics) 50 μg per mouse in 200 μl of 1:1 (vol:vol) of PBS with Incomplete Freund's Adjuvant (Sigma) i.p.; (ii) Group 2 (n=8): 200 μl of Incomplete Freund's Adjuvant in PBS (1:1 (vol:vol), i.p.); (iii) Group 3, (n=8): 200 μl of PBS (i.p.); and iv) Group 4, (n=8): received no injections. Next day after the boost, mice were placed individually into the BioDAQ mouse cages (Research Diets, Inc., New Brunswick, N.J., USA) each equipped with an automatic feeding monitor. Food (Serlab, Montataire France) and drinking water were available ad libitum and body weight was measured daily. After 3 days of acclimatization to the BioDAQ cages, mice received the following treatments: Groups 1, 2 and 3 (each n=8), that is, mice that have been immunized with ClpB, injected with adjuvants and with PBS, respectively, all received an acute injection of α-MSH peptide (Bachem AG), 100 μg·kg^−1 body weight in 100 μl of PBS (i.p.) at 1000 hours. The control mice (n=8) received PBS only (i.p.). Feeding data was continuously monitored and analyzed using the BioDAQ data viewer 2.3.07 (Research Diets). For the meal pattern analysis, the inter-meal interval was set at 300 s.

[2] = Locomotor activity and anxiety tests (open field, elevated O-maze) in immunized mice; assay type: in vivo
Protocol: After the feeding study, mice were placed in individual mouse-holding cages with food and water available ad libitum, and were analyzed for locomotor activity and anxiety in 0-maze (Med Associate, Inc., St Albans, Vt., USA) tests performed during 2 consecutive days. Two hours after the 0-maze test, mice were killed by decapitation in a guillotine and trunk blood was collected into EDTA-containing tubes. Plasma was separated by centrifugation at 3500 r.p.m. ([…]) for 10 min at 4° C. and stored at −80° C. before assay.
After feeding study in the BioDAQ cages, mice were analyzed for locomotor activity using a Versamax Animal Activity Monitor (AccuScan Instruments, Inc., Columbus, Ohio, USA). Next day after the locomotor activity test, all mice were tested for their anxiety in an elevated O-maze. The elevated-O-maze is a variation of more commonly used elevated plusmaze pharmacologically validated for anxiety testing in rodents. The advantage of the O-maze is that it lacks the ambiguous central square of the traditional plus-maze. The O-maze consisted of a circular infrared platform (outer diameter 120 cm) elevated 80 cm above the floor, featuring two open and two closed segments made of gray plastic. The closed segments were enclosed by walls extending 20 cm above the surface of the maze and covered with a black infrared plexiglas lid. Each test started by placing the mouse into one of the two closed segments. The test lasted 5 min and was recorded using a video camera placed above the O-maze and the EthoVision video tracking software (Noldus IT, Wageningen, The Netherlands). Measurements of distance and time spent in the open and closed segments were analyzed. Between each mouse tests, the 0-maze was cleaned with 30% ethanol.

[3] = target: T1, α-MSH (Homo sapiens, UniProt P01189); experiment: ELISA of plasma auto-antibodies reacting with α-MSH; assay type: in vivo
T1 construct: endogenous peptide hormone of the melanocortin family, with a tridecapeptide structure; purchased Bachem AG
Excerpt: (§1) Each determination was done in duplicate.

[4] = target: T2, adrenocorticotropic hormone (Homo sapiens, UniProt P01189); experiment: ELISA of plasma IgG reacting with adrenocorticotropic hormone; assay type: in vivo; settings: ClpB immunization study
T2 construct: purchased Bachem AG
T2 sequence (P01189 138-176 limits assumed): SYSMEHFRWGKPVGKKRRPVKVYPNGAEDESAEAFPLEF
Excerpt: as §1

[5] = target: T1, α-MSH; experiment: Affinity kinetics assay (surface plasmon resonance, BIAcore) of mouse IgG for α-MSH; assay type: binding; settings: ClpB-immunized mice compared with controls
Protocol: (§2) IgG purification and affinity assay were performed according to a published protocol (Legrand et al., Protoc Exch 2014, doi:10.1038/protex2014.004). Extraction of plasma globulins was done by plasma acidification and separation on C18 SEP column (Phoenix Pharmaceuticals, Burlingame, Calif., USA), then 500 μl of mouse plasma was mixed with 500 μl of buffer A (1% trifluoroacetic acid in water). The column was activated in 1 ml of buffer B (60% acetonitrile in 1% trifluoroacetic acid) by 3 min centrifugation with 700 r.p.m. and rinsed three times with 3 ml of buffer A. Diluted plasma (1:1 in buffer A) was added to the column and the effluent (1 ml) was saved (frozen at −20° C.) for further purification of IgG. Total IgG were purified from the effluents of mouse plasma samples using the Melon Gel Kit (Thermo Fisher Scientific, Rockford, Ill., USA). Plasma effluents diluted 1:4 in kit's purification buffer was added on washed melon gel deposited in a column. Column was spun 1 min at 6000 r.p.m., and the IgG containing effluent was saved and frozen at −20° C. before lyophilization. […]
(§3) Between injections of each sample, the binding surface was regenerated with 10 mM NaOH, resulting in the same baseline level of the sensorgram. The affinity kinetic data were analyzed using BiaEvaluation 4.1.1 program (GE Healthcare). […]

[6] = tested on: anti-α-MSH IgG; settings: 20 and 10 μg of ClpB
Protocol: Following 2D-PAGE, E. coli cytoplasmic proteins were transferred onto Hybond-ECL PVDF membrane (GE Healthcare) via a dry transfer method (Trans Blot Cell, Bio-Rad, USA) and a constant current of 0.8 mA.cm^−2 of the membrane size for 2 h. After transfer, membranes were blocked with 5% (wt:vol) milk (Regilait, France) in phosphate-buffered saline (PBS; 10 mmol·l^−1 […], and 150 mM·l^−1 NaCl) plus 0.05% (vol:vol) Tween 20.

[7] = target: T3, ClpB protein (Escherichia coli, UniProt P63284); settings: in vivo
Protocol: Plates were washed (5 min for three times) in PBS with 0.05% Tween 200, pH 7.4, and then incubated overnight at 4° C. with 100 μl of mouse plasma diluted 1:200 in PBS to determine free auto-Ab levels or diluted 1:200 in dissociative 3M NaCl and 1.5M glycine buffer, pH 8.9, to determine total auto-Ab levels. The plates were washed (three times) and incubated with 100 μl of alkaline phosphatase (AP)-conjugated goat antimouse IgG (1:2000) or anti-mouse IgM (1:1000), all obtained from Jackson ImmunoResearch Laboratories, Inc. (West Grove, Pa., USA). Following washing (three times), 100 μl of p-nitrophenyl phosphate solution (Sigma) was added as AP substrate. After 40 min of incubation at room temperature, the reaction was stopped by adding 3 N NaOH. The optical density was determined at 405 nm using a microplate reader Metertech 960 (Metertech Inc., Taipei, Taiwan). Blank optical density values resulting from the reading of plates without addition of plasma samples were subtracted from the sample optical density values. Each determination was done in duplicate.
IgG and IgM antibodies reactive with ClpB were detected by enzyme-linked immunosorbent assay using corresponding anti-mouse or anti-human AP-conjugated antibodies (Jackson ImmunoResearch Laboratories, Inc.) as described above.

[8] = target: T3, ClpB protein; settings: ClpB-immunized mice
Protocol: as §2, §3

[9] = ClpB-immunized mice, last 10 days
[10] = ClpB-immunized mice, α-MSH 100 μg/kg i.p.
[11] = open field, between study groups

T3 sequence (P63284 whole entry): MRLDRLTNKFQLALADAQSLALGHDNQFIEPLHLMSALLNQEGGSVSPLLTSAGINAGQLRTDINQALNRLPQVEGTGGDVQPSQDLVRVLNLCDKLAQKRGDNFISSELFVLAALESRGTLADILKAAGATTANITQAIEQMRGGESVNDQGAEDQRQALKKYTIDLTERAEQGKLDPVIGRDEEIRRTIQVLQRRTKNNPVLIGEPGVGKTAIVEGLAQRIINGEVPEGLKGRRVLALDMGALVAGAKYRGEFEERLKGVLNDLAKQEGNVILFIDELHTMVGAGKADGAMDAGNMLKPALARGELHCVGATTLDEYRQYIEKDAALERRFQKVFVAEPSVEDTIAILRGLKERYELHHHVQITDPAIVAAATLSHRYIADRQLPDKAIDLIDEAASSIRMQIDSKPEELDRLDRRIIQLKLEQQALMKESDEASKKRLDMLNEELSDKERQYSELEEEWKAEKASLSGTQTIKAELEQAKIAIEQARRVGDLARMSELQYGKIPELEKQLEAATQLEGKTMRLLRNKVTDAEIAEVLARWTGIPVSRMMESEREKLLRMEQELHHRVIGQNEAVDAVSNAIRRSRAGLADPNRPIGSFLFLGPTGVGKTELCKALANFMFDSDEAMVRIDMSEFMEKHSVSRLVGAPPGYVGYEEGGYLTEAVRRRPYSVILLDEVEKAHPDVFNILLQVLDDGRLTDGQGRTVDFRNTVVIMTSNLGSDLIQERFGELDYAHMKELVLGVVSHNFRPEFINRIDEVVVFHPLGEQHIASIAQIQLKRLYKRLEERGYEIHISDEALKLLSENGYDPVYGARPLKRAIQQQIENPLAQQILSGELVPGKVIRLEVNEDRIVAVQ

ClpB: chaperone protein ClpB from E. Coli K12, SEQ ID NO: 1, 857 amino acids; recombinant protein (Delphi Genetics) used for immunization
body weight for a few days after injections ([1]; ClpB 50 μg per mouse i.p. together with adjuvant, C57Bl6 mice): lower | body weight vs controls ([1]; ClpB-immunized mice, 4 weeks later): +5% | meal number [1, 9]: did not change | meal size [1, 9]: increased | mean daily food intake as compared with other groups ([1]; ClpB-immunized mice, last 10 days of the experiment): +13% | 24 h food intake following i.p. injection of α-MSH [1, 10]: not affected | body weight following i.p. injection of α-MSH [1, 10]: not affected | time spent in the closed arms of the O-maze ([2]; ClpB-immunized mice compared with all other groups): less time | distance moved in the closed arms of the O-maze ([2]; ClpB-immunized mice compared with controls): shorter distance | time spent in the open vs border areas [2, 11]: did not significantly differ | total locomotor activity [2, 11]: did not significantly differ | plasma levels of α-MSH IgM auto-Abs ([3]; ClpB immunization study, between the groups): did not significantly differ | plasma levels of α-MSH-reactive IgG ([3]; ClpB-immunized mice): Increased | plasma adrenocorticotropic hormone-reactive IgG [4]: No significant differences | affinity of α-MSH-reactive IgG for α-MSH [5]: lower affinities | Western blot revealed with anti-α-MSH IgG [6]: showed a 96-kDa band | plasma anti-ClpB IgG levels [7]: strong increase | plasma levels of anti-ClpB IgG after adsorption with α-MSH [7]: significantly reduced | affinity of anti-ClpB IgG [8]: lower affinities
